Patent US20130071521A1, “REBAUDIOSIDE D SWEETENERS AND FOOD PRODUCTS SWEETENED WITH REBAUDIOSIDE D” (PEPSICO, INC., priority 2007, published 2013)

How the values were obtained:
[1] = Kinghorn (2002) page 138, cited from earlier work
[2] = system: sensory panel of twelve testers; assay: Sensory panel evaluation in water, noncarbonated beverage base and carbonated beverage base (Example 2); format: in vivo; set-up: Sweetness / Bitterness: scale not given here; conditions: for interaction between the sweetener and the three beverage bases (initial sweetness attribute plots): water, noncarbonated and carbonated beverage base; for Reb D Compared to Reb A % Ratio, Bitterness / Reb D Compared to Reb A % Ratio, Sweetness: ratio of Reb D to Reb A
Procedure: Potential beverage base effects on the initial sweetness perception of rebaudioside D were investigated by performing tests of three concentrations of rebaudioside D (Reb D) in water, in a noncarbonated beverage base, and in a carbonated beverage base, by a sensory panel of twelve testers. The numerical data generated by the sensory panel testers were then analyzed for their statistical significance.
The water employed for the tests of this Example comprised the characteristics as described in Example 1. The noncarbonated beverage base comprised purified water, and citric acid in an amount sufficient to decrease the pH of the noncarbonated beverage base to 3.1. The carbonated beverage base comprised purified water, carbon dioxide, and citric acid in an amount sufficient to decrease the pH of the noncarbonated beverage base to about 3.1. The initial sweetness characteristics of 606 parts per million (ppm) Reb D in water were compared to the initial sweetness characteristics of 606 ppm Reb D in noncarbonated beverage base and 606 ppm Reb D in carbonated beverage base.
The specific attributes tested by the sensory panel comprised sweetness, thickness, astringency, bitterness, numbing, cooling, licorice, burn/tingle and mouthcoat.

[3] = commonly accepted potency figures; cited from earlier work
Water solubility = format: physicochemical; conditions: commercially available Reb D
Text: The water solubility of commercially available Reb D is low, thus, according to certain embodiments of the invention, rebaudioside D is provided as a supersaturated solution of rebaudioside D in the beverage products disclosed herein. As used herein, the term “saturated” refers to the point of maximum concentration at which a solution of a substance (e.g., a rebaudioside D solution) can dissolve no more of that substance. The saturation point of a substance depends on the temperature of the liquid the substance is to be dissolved in, as well as the chemical natures of the liquid and the substance involved (e.g., the water and/or the rebaudioside D). As used herein, the term “supersaturated” refers to a solution that contains more of a dissolved material (e.g., rebaudioside D) than a saturated solution. Supersaturated solutions are typically achieved when one or more conditions of a saturated solution is changed, such as, e.g., temperature, volume (e.g., by evaporation), pressure or the like.

[4] = system: sensory panel of twelve testers; assay: Sensory panel evaluation of initial sweetness characteristics of sweeteners in water (Example 1); format: in vivo; conditions: for behavior as compared to sucrose, all concentrations plotted: FIG. 12; for initial sweetness perception: FIG. 2/FIG. 4; for initial bitterness perception: FIG. 3/FIG. 5
Procedure: Sensory evaluations of different sweeteners at various concentrations were performed to provide comparative analysis of organoleptic characteristics of aqueous solutions of rebaudioside D, versus other sweeteners. The rebaudioside D was a stevia extract having a purity of at least 93% by weight rebaudioside D (Reb D). Initial sweetness characteristics of three concentrations of such Reb D in water were determined by a sensory panel of twelve testers. Sensory panels are well known to those of skill in the art, and comprise testers trained to evaluate the organoleptic attributes of comestibles. Typically, sensory panelists have been screened for their taste acuity and extensively trained in the use of standardized vocabulary to describe the appearance, aroma, flavor, mouthfeel and aftertaste of a wide variety of products, as well as scaling techniques to quantify the attributes. The numerical data generated by the sensory panel testers were then analyzed for their statistical significance.
The water employed in the tests of Example 1 comprised purified water as described in detail above, and having a pH of 7.0. The initial sweetness characteristics of 1200 parts per million (ppm) Reb D in water were compared to the initial sweetness characteristics of aqueous solutions of each of 1200 ppm rebaudioside A (Reb A), sucrose, aspartame and sucralose. The rebaudioside A was a stevia extract comprising a purity of 95% by weight rebaudioside A (PureCircle USA Inc., Oak Brook, Ill.). The specific attributes tested by the sensory panel comprised sweetness, thickness, astringency, bitterness, numbing, cooling and licorice.
The initial sweetness characteristics of other concentrations of rebaudioside D in water were also tested and compared to the same concentrations of rebaudioside A in water. […] FIGS. 2 through 5 illustrate the differences in the characteristics of sweetness and bitterness attributes between Reb D and Reb A.

[5] = Sweetness intensity and quality of taste of steviol glycosides reported by Kinghorn (2002); conditions: from the Kinghorn values
Text: In the book “Stevia, The genus Stevia”, edited by A. Douglas Kinghorn (2002), the structural differences, sweetness intensity and quality of taste between the steviol glycosides is reported on page 138. The relative quality of taste, as compared to stevioside, (i.e., stevioside is rated 0) of rebaudioside D was rated higher (+3) than rebaudioside A was rated (+2). Particular taste attributes that contributed to the quality of taste, however, were not individually rated. The sweetness of rebaudioside A was reported to have a value of 242, whereas the sweetness of rebaudioside D was reported to have a value of 221.

[6] = 360 ppm, averaged across all three beverage bases
[7] = 606 ppm, averaged across all three beverage bases
[8] = 1200 ppm, averaged across all three beverage bases
[9] = CSD (carbonated beverage base), 360 ppm
[10] = CSD (carbonated beverage base), 606 ppm
[11] = High Level, 1200 ppm, averaged across all three beverage bases
[12] = Low-Medium Level, 360 ppm, averaged across all three beverage bases
[13] = Medium Level, 606 ppm, averaged across all three beverage bases
[14] = NCB (noncarbonated beverage base), 360 ppm
[15] = NCB (noncarbonated beverage base), 606 ppm

C=C1C[C@@]23CC[C@H]4[C@@](C)(CCC[C@@]4(C)C(=O)O[C@@H]4O[C@H](CO)[C@@H](O)[C@H](O)[C@H]4O[C@@H]4O[C@H](CO)[C@@H](O)[C@H](O)[C@H]4O)[C@@H]2CC[C@]1(O[C@@H]1O[C@H](CO)[C@@H](O)[C@H](O[C@@H]2O[C@H](CO)[C@@H](O)[C@H](O)[C@H]2O)[C@H]1O[C@@H]1O[C@H](CO)[C@@H](O)[C@H](O)[C@H]1O)C3 [Reb D, rebaudioside D]
sweetness (value reported by Kinghorn) [1]: 221 | relative quality of taste, as compared to stevioside ([1]; stevioside is rated 0): +3 | average bitterness in each of the three beverage bases versus Reb A ([2]; 360 ppm): lower average bitterness | average sweetness in each of the three beverage bases versus Reb A ([2]; 360 ppm): greater average sweetness | interaction between the sweetener and the three beverage bases (initial sweetness attribute plots) ([2]; 360 ppm (sucrose 5.4 brix), FIGS. 16-18): no significant interaction | Reb D Compared to Reb A % Ratio, Bitterness [2, 6]: 37% | Reb D Compared to Reb A % Ratio, Sweetness [2, 6]: 115% | average bitterness in each of the three beverage bases versus Reb A ([2]; 606 ppm): lower average bitterness | average sweetness in each of the three beverage bases versus Reb A ([2]; 606 ppm): greater average sweetness | interaction between the sweetener and the three beverage bases (initial sweetness attribute plots) ([2]; 606 ppm (sucrose 8.5 brix), FIGS. 13-15): no significant interaction | Reb D Compared to Reb A % Ratio, Bitterness [2, 7]: 30% | Reb D Compared to Reb A % Ratio, Sweetness [2, 7]: 117% | Reb D Compared to Reb A % Ratio, Bitterness [2, 8]: 40% | Reb D Compared to Reb A % Ratio, Sweetness [2, 8]: 150% | Bitterness [2, 9]: 18.1 | Sweetness [2, 9]: 63.4 | Bitterness [2, 10]: 14.1 | Sweetness [2, 10]: 73.9 | Bitterness [2, 11]: 17.4 | Sweetness [2, 11]: 105.5 | Bitterness [2, 12]: 7.7 | Sweetness [2, 12]: 60.6 | Bitterness [2, 13]: 9.8 | Sweetness [2, 13]: 74.3 | Bitterness [2, 14]: 10.7 | Sweetness [2, 14]: 58.9 | Bitterness [2, 15]: 7.4 | Sweetness [2, 15]: 85.1 | Bitterness ([2]; Water, 360 ppm): 7.7 | Sweetness ([2]; Water, 360 ppm): 60.6 | Bitterness ([2]; Water, 606 ppm): 9.8 | Sweetness ([2]; Water, 606 ppm): 74.3 | potency, times as sweet as sugar [3]: 150-300 times as sweet as sugar | water solubility (Water solubility): low | overall attributes versus Reb A ([4]; 360, 606 and 1200 ppm in water, FIG. 8): less bitterness and astringency | behavior as compared to sucrose, all concentrations plotted ([4]; 360 ppm and 606 ppm Reb D in water): behaved more like sucrose than did any of the concentrations of Reb A | attributes of lower levels versus the same levels of Reb A ([4]; 360 ppm and 606 ppm in water, FIG. 8): less bitter, astringent, numbing and licorice | bitterness perception value less than same concentration of Reb A ([4]; 360 ppm in water): about 30 | initial sweetness perception ([4]; 360 ppm in water): about 62 | initial bitterness perception ([4]; 360 ppm in water): about 8 | initial sweetness attributes versus the same concentration of Reb A ([4]; 360 ppm in water, FIG. 7): significantly less astringency, bitterness and numbing | relative sweet properties (continuum regular sweet to artificial sweet-like) versus same concentration of Reb A ([4]; 360 ppm in water, FIG. 11): behaved more like sucrose | bitterness perception value less than same concentration of Reb A ([4]; 600 ppm in water): about 47 | initial sweetness attributes versus the same concentration of Reb A ([4]; 606 ppm in water, FIG. 6): significantly less astringency, bitterness and numbing | relative sweet properties (continuum regular sweet to artificial sweet-like) versus same concentration of Reb A ([4]; 606 ppm in water, FIG. 10): behaved more like sucrose | behavior as compared to sucrose, all concentrations plotted ([4]; 1200 ppm Reb D in water): behaved more like sucrose than did either 606 ppm Reb A or 1200 ppm Reb A | bitterness perception value less than same concentration of Reb A ([4]; 1200 ppm in water): about 67 | initial sweetness attributes versus the same concentration of Reb A ([4]; 1200 ppm in water, FIG. 1): significantly less astringency, bitterness and numbing | initial sweetness perception ([4]; 1200 ppm in water): about 108 | initial bitterness perception ([4]; 1200 ppm in water): about 18 | relative sweet properties (continuum regular sweet to artificial sweet-like) versus same concentration of Reb A ([4]; 1200 ppm in water, FIG. 9): behaved more like sucrose | numerical value of the bitterness perception versus Reb A ([4]; all concentrations in water): significantly lower | change in sweetness perception with an increase in concentration ([4]; in water, 360 to 1200 ppm): significant increase in sweetness perception | increase in bitterness perception with an increase in concentration, versus Reb A ([4]; in water, 360 to 1200 ppm): substantially lower | licorice attribute, 606 ppm Reb D versus 1200 ppm Reb D ([4]; in water, FIG. 6): lower value | correlation to the sweetness perception attributes of sucrose, versus rebaudioside A ([4]; in water, FIG. 8): more highly correlated | sweetness less than the sweetness of rebaudioside A [5]: approximately 10%
